Assay results from patent publication US7932421B2, “N-cyclohexyl benzamides and benzeneacetamides as inhibitors of 11-beta-hydroxysteroid dehydrogenases” (Amgen Inc., priority 2006, dated 2011).

target: T1, human 11β-HSD1 (Homo sapiens, UniProt P28845); experiment: hHSD1 SPA: inhibition of 11β-HSD1 (cortisone to cortisol conversion, scintillation proximity assay); assay type: biochemical; conditions: recombinant human 11β-HSD1, SPA
T1 construct: made in house
Description: Inhibition of 11β-HSD1 activity was examined by quantitative determination, by an SPA (scintillation proximity assay) system, of the suppressive action on the conversion from cortisone to cortisol using human 11β-HSD1 (hereinafter recombinant 11β-HSD1) expressed using a baculo-virus system as an enzyme source. For the reaction, a reagent was added to a 96-well plate (96-well Opti-plates™-96 (Packard)) to the following final concentration and a volume of 100 μl, and the reaction transpired at room temperature for 90 min. The reaction solution used was 0.1 μg/ml recombinant 11β-HSD1, 500 μM NADPH, 16 nM ^3H cortisone (Amersham Biosciences, […]) dissolved in 0.1% BSA (Sigma)-containing PBS and the test drug was 2 μl of a compound solution (dissolved in DMSO). […] After completion of the reaction, the plate was incubated overnight at room temperature and the radioactivity was measured by Topcount (Packard). […] The inhibition (%) of the test drug was calculated by ((value of control−value of test drug)/(value of control−value of positive control))×100(%). The IC50 value was analyzed using a computer-based curve fitting software.
Recombinant human, mouse and rat 11β-HSD1 were expressed in baculovirus expression system, isolated by affinity purification and used as the enzyme sources for cortisone to cortisol conversion in vitro. ^3H-Cortisone (Amersham Bioscience, […]. 49 Ci/mmol) was used as the substrate, and a monoclonal anti-cortisol antibody and the scintillation proximity assay (SPA) system were used to detect the product of the 11β-HSD1-catalyzed reaction, ^3H-cortisol. Reactions took place at room temperature for 90 min. in 96-well Opti-plates™-96 (Packard) in 100 μL volume with 2 μL test compounds or control in DMSO, 0.1 μg/mL 11β-HSD1 protein, 500 μM NADPH and 16 nM radioactive cortisone, in PBS buffer supplemented with 0.1% BSA (Sigma).
Plates were incubated at room temperature overnight before being read on a Topcount (Packard). The point of 50% inhibition of 11β-HSD1 enzyme activity (IC50) was determined by computer-based curve fitting.

T1 sequence (P28845 whole entry): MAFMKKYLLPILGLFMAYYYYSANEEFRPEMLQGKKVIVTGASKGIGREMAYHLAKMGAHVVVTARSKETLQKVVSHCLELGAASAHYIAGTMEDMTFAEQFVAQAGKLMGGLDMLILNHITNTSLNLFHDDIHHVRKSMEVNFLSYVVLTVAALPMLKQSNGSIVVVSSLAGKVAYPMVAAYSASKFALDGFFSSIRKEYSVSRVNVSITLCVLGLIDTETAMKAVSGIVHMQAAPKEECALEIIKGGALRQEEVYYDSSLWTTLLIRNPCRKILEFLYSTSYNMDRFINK

IC50 [nM] | Structure (SMILES)
18.3 | O=C(c1ccccc1)N(C1CC1)[C@H]1CC[C@H](CCO)CC1 [Compound 13, N-Cyclopropyl-N-(trans-4-(2-hydroxyethyl)cyclohexyl)benzamide]
0.94 | CC(C)c1ccc(C(=O)N(C2CC2)[C@H]2CC[C@H](CCO)CC2)cc1 [Compound 11, N-Cyclopropyl-4-isopropyl-N-(trans-4-(2-hydroxyethyl)cyclohexyl)benzamide]
21.7 | COc1ccc(C(=O)N(C2CC2)[C@H]2CC[C@](CCO)(c3ccccn3)CC2)c(F)c1 [Compound 25]
23 | O=C(c1ccc(Cl)cc1)N(C1CC1)[C@H]1CC[C@](CCO)(c2ccccn2)CC1 [Compound 19]
45.2 | O=C(c1cccc(F)c1)N(C1CC1)[C@H]1CC[C@](CCO)(c2ccccn2)CC1 [Compound 15]
6.89 | Cc1ccc(C(=O)N(C2CC2)[C@H]2CC[C@H](CC(C)(C)O)CC2)c(F)c1 [Compound 2, N-cyclopropyl-2-fluoro-N-(trans-4-(2-hydroxy-2-methylpropyl)cyclohexyl)-4-methylbenzamide]
6.9 | O=C(c1ccc(Cl)cc1)N(C1CC1)[C@H]1CC[C@H](CCO)CC1 [Compound 6, 4-Chloro-N-cyclopropyl-N-(trans-4-(2-hydroxyethyl)cyclohexyl)benzamide]
11.4 | Cc1ccc(C(=O)N(C2CC2)[C@H]2CC[C@](CCO)(c3ccccn3)CC2)cc1 [Compound 26]
20.9 | O=C(c1ccccc1F)N(C1CC1)[C@H]1CC[C@](CCO)(c2ccccn2)CC1 [Compound 14]
21.9 | O=C(c1ccc(F)cc1)N(C1CC1)[C@H]1CC[C@H](CCO)CC1 [Compound 5, N-Cyclopropyl-4-fluoro-N-(trans-4-(2-hydroxyethyl)cyclohexyl)benzamide]
54.3 | O=C(c1ccc(C(F)(F)F)cc1)N(C1CC1)[C@H]1CC[C@](CCO)(c2ccccn2)CC1 [Compound 31]
59.4 | COc1ccc(C(=O)N(C2CC2)[C@H]2CC[C@](CCO)(c3ccccn3)CC2)cc1 [Compound 24]
3.95 | O=C(c1ccccc1F)N(C1CC1)[C@H]1CC[C@H](CCO)CC1 [Compound 3, N-Cyclopropyl-2-fluoro-N-(trans-4-(2-hydroxyethyl)cyclohexyl)benzamide]
52.1 | CC(C(=O)N(C1CC1)[C@H]1CC[C@H](CCO)CC1)c1ccccc1 (stereo partly drawn) [Compound 32, N-Cyclopropyl-N-(trans-4-(2-hydroxyethyl)cyclohexyl)-2-phenylpropionamide]
40.5 | O=C(c1cccc(F)c1)N(C1CC1)[C@H]1CC[C@H](CCO)CC1 [Compound 4, N-Cyclopropyl-3-fluoro-N-(trans-4-(2-hydroxyethyl)cyclohexyl)benzamide]
> 100 | O=C(c1ccc(F)cc1)N(C1CC1)[C@H]1CC[C@](CCO)(c2ccccn2)CC1 [Compound 16]
6.35 | COc1ccc(C(=O)N(C2CC2)[C@H]2CC[C@H](CCO)CC2)cc1 [Compound 9]
1.06 | O=C(c1ccc(Br)cc1F)N(C1CC1)[C@H]1CC[C@H](CCO)CC1 [Compound 8, 4-Bromo-N-cyclopropyl-2-fluoro-N-(trans-4-(2-hydroxyethyl)cyclohexyl)benzamide]
1.94 | Cc1ccc(C(=O)N(C2CC2)[C@H]2CC[C@H](CCO)CC2)c(F)c1 [Compound 1, N-cyclopropyl-2-fluoro-N-(trans-4-(2-hydroxyethyl)cyclohexyl)-4-methylbenzamide]
61.4 | COc1cccc(C(=O)N(C2CC2)[C@H]2CC[C@](CCO)(c3ccccn3)CC2)c1 [Compound 23]
7.2 | CC(C)c1ccc(C(=O)N(C2CC2)[C@H]2CC[C@](CCO)(c3ccccn3)CC2)cc1 [Compound 28]
12.1 | CC(C)(C)c1ccc(C(=O)N(C2CC2)[C@H]2CC[C@](CCO)(c3ccccn3)CC2)cc1 [Compound 29]
> 100 | CN(C)C(=O)c1ccc(C(=O)N(C2CC2)[C@H]2CC[C@](CCO)(c3ccccn3)CC2)cc1 [Compound 27]
30.8 | O=C(c1cccc(F)c1F)N(C1CC1)[C@H]1CC[C@H](CCO)CC1 [Compound 7, N-Cyclopropyl-2,3-difluoro-N-(trans-4-(2-hydroxyethyl)cyclohexyl)benzamide]
